Active and inactive are the calls of the source. No cut-off for these calls is given here.
How the values were obtained:
L1210 [1] = experiment: Antitumor activity against mouse L1210 cells allografted in mouse assessed as increase of host lifespan; format: functional
Mus musculus = organism: Mus musculus; experiment: Toxicity in mouse L1210 cells allografted mouse assessed as mortality up to 5 days; format: organism-based; conditions: l1210, 120 h
[2] = Distribution coefficient, log P of the compound; format: physicochemical; conditions: octanol/water
L1210 [3] = experiment: Antitumor activity against mouse L1210 cells allografted in mouse assessed as increase of host lifespan of 110 days; format: functional, cell-based
[4] = Aqueous phase distribution coefficient, log P of the compound in 0.01 M NaOH; format: physicochemical
[5] = Octanol-saturated water partition coefficient, log D of the compound; format: physicochemical

| SMILES | log(1/C) (L1210 [1]) | also measured |
| --- | --- | --- |
| CN(C)/N=N/c1ccc([N+](=O)[O-])cc1C(N)=O | 3.26 | – |
| CN/N=N/c1nc[nH]c1C(=O)OC | 3.35 | – |
| CCCCN(C)/N=N/c1c(C(N)=O)n[nH]c1C | 3.83 | – |
| CN(C)/N=N/c1cccc(Cl)c1 | – | Activity (Mus musculus): Toxic |
| CN(/N=N/c1ccccc1C(=O)O)C1CCCCC1 | – | Activity (Mus musculus): Toxic |
| C=CCN(C)/N=N/c1ccccc1C(N)=O | 3.43 | – |
| CCCN(C)/N=N/c1nc[nH]c1C(N)=O | 3.58 | – |
| CCCN(C)/N=N/c1ccccc1C(N)=O | 3.26 | – |
| CCNC(=O)c1ccccc1/N=N/N(C)C | 2.92 | – |
| CN(C)/N=N/c1cc(C#N)cc(C#N)c1 | 2.78 | logP [2]: 2.18 |
| CN(C)/N=N/c1cccc(NC(N)=O)c1 | – | Activity (Mus musculus): Toxic |
| CN(CCO)/N=N/c1ccccc1C#N | – | Activity (Mus musculus): Toxic |
| Cc1[nH]nc(C(N)=O)c1/N=N/N(C)C | 3.84 | – |
| CCCCN(C)/N=N/c1ccc(CCC(=O)OCC)cc1 | 3.02 | – |
| CCCCCN(C)/N=N/c1nc[nH]c1C(N)=O | 3.58 | – |
| CC(=O)c1cccc(/N=N/N(C)C)c1 | 3.58 | – |
| CCCCCCCCOC(=O)c1[nH]cnc1/N=N/N(C)C | 3.06 | – |
| CN(C)/N=N/c1ccc(SC#N)cc1C(N)=O | – | Activity (L1210 [3]): inactive |
| COC(=O)c1cccc(/N=N/N(C)C)c1 | 3.42 | – |
| CCCCCCCCN(C)/N=N/c1nc[nH]c1C(N)=O | 3 | logP [4]: 3.22; logP ([2]; read-out: logP): 3.2 |
| CN(C)/N=N/c1ccccc1C(=O)NN | – | logD [5]: 1.28; Activity (Mus musculus): Toxic |

| SMILES | log(1/C) (L1210 [1]) | also measured |
| --- | --- | --- |
| CN(C)/N=N/c1cc(Cl)cc(C(N)=O)c1Cl | 3.04 | – |
| CN(C)/N=N/c1ccc(NC(N)=O)cc1 | 3.97 | logP [2]: 1.25 |
| CCCc1nc(/N=N/N(C)C)c(C(N)=O)[nH]1 | 3.42 | – |
| CN(CCO)/N=N/c1[nH]cnc1C(N)=O | 3.12 | – |
| C#CCN(C)/N=N/c1nc[nH]c1C(N)=O | 3.61 | – |
| CN(C)/N=N/c1ccc(CCCC(=O)NN)cc1 | 3.6 | – |
| CN(C)/N=N/c1ccc([N+](=O)[O-])cc1 | – | Activity (Mus musculus): Toxic |
| CN(CCc1ccccc1)/N=N/c1nc[nH]c1C(N)=O | 3.49 | – |
| Cc1ccc(/N=N/N(C)C)cc1 | 3.76 | – |
| CN(C)/N=N/c1ccc(Cl)cc1C(N)=O | – | Activity (Mus musculus): Toxic |
| CCCCN(C)/N=N/c1n[nH]cc1C(=O)OCC | 3.16 | – |
| C/N=N/Nc1ccccc1 | 3.6 | – |
| CN/N=N/c1nc[nH]c1C(=O)N1CCCC1 | 3.28 | – |
| CN(C)/N=N/c1cc(C(N)=O)cc(C(N)=O)c1 | 3.27 | logP [2]: 0.22 |
| CN(C)/N=N/c1[nH]cnc1C(N)=O [DACARBAZINE] | 3.29 | – |
| CN(CCO)/N=N/c1ccccc1 | – | logP [4]: 1.71; Activity (Mus musculus): Toxic |
| CN/N=N/c1ccc(C)cc1 | – | Activity (Mus musculus): Toxic |
| CN(C)/N=N/c1c(Cl)cc(Cl)cc1C(N)=O | 3.14 | – |
| Cc1nc(/N=N/N(C)C)c(C(N)=O)[nH]1 | 3.06 | – |
| CCOC(=O)c1ccc(/N=N/N(C)CC)cc1 | 3.01 | – |
| CC(C)N(C)/N=N/c1ccc(C(N)=O)cc1 | 3.17 | – |

| SMILES | log(1/C) (L1210 [1]) | also measured |
| --- | --- | --- |
| CN(C)/N=N/c1ccc(Cl)cc1 | – | Activity (Mus musculus): Toxic |
| CCCCN(C)/N=N/c1ccc(C(N)=O)cc1 | 3.47 | logD [5]: 2.46 |
| CN(C)/N=N/c1ccc(NC=O)cc1 | 3.85 | – |
| CCOC(=O)CCCc1ccc(/N=N/N(C)C)cc1 | 3.54 | – |
| CC(=O)c1ccc(/N=N/N(C)C)cc1 | – | Activity (Mus musculus): Toxic |
| C=CCN(C)/N=N/c1ccc(C(N)=O)cc1 | 3.38 | logP [2]: 2.09 |
| CNN(C)/N=N/c1ccc(C(N)=O)cc1 | – | Activity (Mus musculus): Toxic |
| CCCCOC(=O)c1[nH]cnc1/N=N/N(C)C | 3.53 | – |
| CC(=O)Nc1ccc(/N=N/N(C)C)cc1 | 4.04 | – |
| CCN(C)/N=N/c1ccc(NC(N)=O)cc1 | 3.87 | – |
| CCOC(=O)c1nc(C)[nH]c1/N=N/N(C)C | 3.35 | – |
| CCCCN(C)/N=N/c1[nH]cnc1C(N)=O | 3.54 | – |
| CN(C)/N=N/c1ccccc1C(=O)NCC(F)(F)F | – | Activity (L1210 [3]): inactive |
| CN(C)/N=N/c1n[nH]cc1C(N)=O | 3.49 | logP ([2]; read-out: logP): -0.12 |
| CCCCCCCCN(C)/N=N/c1ccccc1C(=O)O | 3.47 | logP [4]: 0.24; logP ([2]; read-out: logP): 0.24 |
| CN(C)/N=N/c1ccccc1Cl | 3.26 | logP [4]: 2.97 |
| COC(=O)c1c[nH]nc1/N=N/N(C)C | 3.49 | logD [5]: 0.04 |
| CN(C)/N=N/c1cccc([N+](=O)[O-])c1 | – | logD [5]: 2.75; Activity (Mus musculus): Toxic |
| CCOC(=O)c1c[nH]nc1/N=N/N(C)C | 3.35 | – |
| CN(C)/N=N/c1c[nH]nc1C(N)=O | 3.42 | – |
| CCOC(=O)c1ccc(/N=N/N(C)CC(C)C)cc1 | 2.8 | – |

From ChEMBL document CHEMBL3244339, “Antitumor 1-(X-aryl)-3,3-dialkyltriazenes. 1. Quantitative structure-activity relationships vs. L1210 leukemia in mice” (J Med Chem, 1978)
